pKd, pKi: −log10 of the molar value. Blank lines part the entries; values can stand above or below the compound they belong to. Where a SMILES comes first, the peptide text is derived from it. [ ]: non-standard residue; d: D form. Trp(5-OH) = N[C@@H](Cc1c[nH]c2ccc(O)cc12)C(=O)O; Phe(4-Cl) = N[C@@H](Cc1ccc(Cl)cc1)C(=O)O; 4Pal = N[C@@H](Cc1ccncc1)C(=O)O; Ava = NCCCCC(=O)O
Experiments:
EphA4 LBD [1] = target: T1, EphA4 LBD (Homo sapiens, UniProt P54764); experiment: Fluorescence polarization assay (FPA), displacement of FITC-labeled KYL peptide; type: binding; settings: PBS pH 7.2
Experimental: Fluorescence Polarization Assay (FPA):
The EphA4 binding KYL peptide ([…], Murai et al. Mol. Cell. Neurosci. 2003, 24:1000-1011) was labeled at the N-terminus with fluorescein isothiocyanate (FITC) and purified by HPLC. For competitive binding assays, 1 μL of 200 μM EphA4 LBD was pre-incubated with the tested compounds at various concentrations in 98 μL PBS (pH=7.2) in 96-well black plates at room temperature for 10 min, and then 1 μL of 500 μM FITC labeled EphA4 peptide was added to produce a final volume of 100 μL. The KYL and DMSO were incubated in each assay as positive and negative controls, respectively. After 30 min of incubation at room temperature, the polarization values in millipolarization units were measured at excitation/emission wavelengths of 480/535 nm with a multilabel plate reader (PerkinElmer, Waltham, Mass., USA). Ki value was determined by fitting the experimental data to a Sigmoidal dose-response (variable slope) nonlinear regression model (GraphPad Prism version 5.01 for Windows, GraphPad Software, San Diego, Calif., USA).
(§1) (B) EphA4-LBD was dissolved in 50 mM potassium phosphate buffer (pH 6.5), containing 100 mM NaCl. ITC were measured.
Target sequence in this assay (P54764 30-209 limits assumed): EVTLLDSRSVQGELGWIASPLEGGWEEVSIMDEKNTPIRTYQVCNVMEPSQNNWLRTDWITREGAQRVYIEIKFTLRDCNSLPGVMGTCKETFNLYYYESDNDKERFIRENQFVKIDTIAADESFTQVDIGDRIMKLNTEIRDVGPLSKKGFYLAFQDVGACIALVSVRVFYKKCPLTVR

[2] = target: EphA4 ligand binding domain (UniProt P54764); experiment: FPA, displacement of FITC-KYL peptide from EphA4 LBD; grade legend: 5 µM ≤ C
EphA4 ligand binding domain, sequence (P54764 29-209 limits assumed): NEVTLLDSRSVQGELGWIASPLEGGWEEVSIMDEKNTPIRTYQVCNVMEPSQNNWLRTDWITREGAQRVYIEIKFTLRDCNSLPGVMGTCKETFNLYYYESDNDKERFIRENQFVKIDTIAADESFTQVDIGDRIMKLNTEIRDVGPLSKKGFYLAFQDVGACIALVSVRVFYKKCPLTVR

EphA4 LBD [3] = target: T1, EphA4 LBD; experiment: Isothermal titration calorimetry (ITC); type: binding; settings: 25° C., PBS with 10% DMSO
Experimental: Isothermal Titration Calorimetry (ITC):
(§2) isothermal titration calorimetry (ITC) to measure binding constant was performed on a Model ITC200 calorimeter from Microcal/GE Life Sciences. When indicated, measurements were performed in a reverse way—i.e., the protein was titrated into the compound solution. A total of 8 μl EphA4 solution (1.65 mM) was injected into the cell containing 165 µM of compound per injection. All titrations were performed at 25° C. in PBS buffer supplemented with 10% DMSO. Experimental data were analyzed using Microcal Origin software provided by the ITC manufacturer (Microcal).
as §1

EphA2 receptor = EphA2 receptor (Homo sapiens, UniProt P29317); experiment: ITC with EphA2 receptor; type: binding; settings: same experimental conditions as EphA4 ITC
EphA2 receptor, sequence (P29317 24-976): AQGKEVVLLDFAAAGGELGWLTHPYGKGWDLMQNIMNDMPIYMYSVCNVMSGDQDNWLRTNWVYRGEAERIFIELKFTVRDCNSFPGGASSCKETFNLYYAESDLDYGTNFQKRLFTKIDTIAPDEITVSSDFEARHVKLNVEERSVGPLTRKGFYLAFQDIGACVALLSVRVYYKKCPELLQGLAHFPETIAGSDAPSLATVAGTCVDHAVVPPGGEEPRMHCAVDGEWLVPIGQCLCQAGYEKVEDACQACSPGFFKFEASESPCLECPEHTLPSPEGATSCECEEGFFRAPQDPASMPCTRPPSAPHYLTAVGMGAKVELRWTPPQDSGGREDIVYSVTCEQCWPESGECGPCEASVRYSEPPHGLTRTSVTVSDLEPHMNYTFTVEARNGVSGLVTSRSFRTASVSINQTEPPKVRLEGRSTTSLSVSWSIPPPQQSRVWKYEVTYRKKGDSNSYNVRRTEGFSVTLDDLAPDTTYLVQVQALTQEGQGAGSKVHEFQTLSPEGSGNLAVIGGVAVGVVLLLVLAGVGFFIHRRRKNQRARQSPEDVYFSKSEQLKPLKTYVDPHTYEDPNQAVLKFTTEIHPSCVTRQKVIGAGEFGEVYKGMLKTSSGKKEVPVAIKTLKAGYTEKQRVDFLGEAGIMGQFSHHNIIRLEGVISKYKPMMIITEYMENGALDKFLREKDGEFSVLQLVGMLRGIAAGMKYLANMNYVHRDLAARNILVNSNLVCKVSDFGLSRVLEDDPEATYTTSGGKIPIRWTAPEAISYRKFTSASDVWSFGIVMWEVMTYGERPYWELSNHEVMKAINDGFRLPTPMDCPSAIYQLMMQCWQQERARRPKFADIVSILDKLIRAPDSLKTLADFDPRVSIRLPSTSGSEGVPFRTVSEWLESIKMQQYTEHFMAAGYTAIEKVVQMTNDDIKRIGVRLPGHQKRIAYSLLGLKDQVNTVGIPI
Experimental: as §2

15N-labeled EphA4-LBD = 15N-labeled EphA4-LBD (Homo sapiens, UniProt P54764); experiment: 2D-[15N,1H]-HSQC NMR detection of binding; settings: 300 K
15N-labeled EphA4-LBD, sequence (P54764 30-209 limits assumed): as the sequence (P54764 30-209 limits assumed) above
Source text: NMR spectra of ^15N-labeled EphA4-LBD were acquired on 700 MHz Bruker Avance spectrometer equipped with TCI cryoprobe. All NMR data were processed and analyzed using TOPSPIN2.1 (Bruker Biospin Corp., Billerica, Mass., USA) and SPARKY3.1 (University of California, San Francisco, Calif., USA).

SOD1(G93A)-mutant mice [4] = experiment: In vivo efficacy in an animal model of ALS
Experimental: Equal number of SOD1(G93A)-mutant mice of the same gender from same litter were randomly divided into two groups (n=12).
FIG. 3. […] The data were analyzed using the Kaplan-Meier method. Animal studies. Equal number of SOD1(G93A)-mutant mice of the same gender from same litter were randomly divided into two groups. […] Animals were assessed daily for the time of onset of hind limb tremor and loss of splay reflex. The endpoint was designated as the point when the mouse could no longer roll over within 10 s after being pushed onto its side. At this stage, mice were killed. Disease onset and survival time were compared using the Kaplan-Meier method. […] Values are given as mean±SD. Preliminary BBB penetration and PK studies were performed by Agilux (Cambridge, Mass.) and in house.

SOD1(G93A)-mutant mice [5] = experiment: Pilot study for toxicity and dose in SOD1(G93A)-mutant mice; type: in vivo; settings: 2 mice
EphA4 = EphA4 (Homo sapiens, UniProt P54764); settings: previously reported; cited from earlier work
EphA4, sequence (P54764 20-986, species assumed): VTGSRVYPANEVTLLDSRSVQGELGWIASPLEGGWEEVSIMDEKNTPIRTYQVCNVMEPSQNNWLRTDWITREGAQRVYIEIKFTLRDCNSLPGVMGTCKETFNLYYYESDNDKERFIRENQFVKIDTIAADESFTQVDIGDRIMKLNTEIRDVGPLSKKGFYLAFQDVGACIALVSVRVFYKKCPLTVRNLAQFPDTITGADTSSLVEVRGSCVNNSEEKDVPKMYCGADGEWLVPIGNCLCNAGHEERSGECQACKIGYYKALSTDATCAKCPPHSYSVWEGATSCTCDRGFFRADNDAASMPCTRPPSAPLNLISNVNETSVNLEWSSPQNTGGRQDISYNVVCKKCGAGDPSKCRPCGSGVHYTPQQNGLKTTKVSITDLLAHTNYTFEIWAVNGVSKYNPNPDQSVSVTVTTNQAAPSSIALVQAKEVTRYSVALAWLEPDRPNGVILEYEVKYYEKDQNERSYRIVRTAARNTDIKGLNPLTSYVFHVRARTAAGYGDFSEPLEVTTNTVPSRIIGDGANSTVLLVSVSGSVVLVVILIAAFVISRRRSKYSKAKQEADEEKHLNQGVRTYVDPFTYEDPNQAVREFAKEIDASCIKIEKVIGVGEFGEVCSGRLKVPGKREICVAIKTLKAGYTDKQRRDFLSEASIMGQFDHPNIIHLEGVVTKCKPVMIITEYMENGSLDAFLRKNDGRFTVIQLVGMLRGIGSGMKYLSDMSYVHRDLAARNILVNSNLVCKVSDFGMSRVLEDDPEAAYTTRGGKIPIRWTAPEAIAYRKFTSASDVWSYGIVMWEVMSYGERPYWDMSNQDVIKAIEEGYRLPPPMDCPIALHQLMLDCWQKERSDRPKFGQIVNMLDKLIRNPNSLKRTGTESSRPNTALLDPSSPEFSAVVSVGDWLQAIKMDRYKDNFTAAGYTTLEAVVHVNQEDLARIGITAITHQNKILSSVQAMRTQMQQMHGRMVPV

[6] = target: EphA4 ligand binding domain (UniProt P54764); experiment: ITC
EphA4-LBD mutant 159A = EphA4-LBD mutant 159A (UniProt P54764); experiment: ITC
EphA4-LBD mutant 159A, sequence (P54764 other isoform, or with tags, fused parts or gaps mutant limits assumed): as the sequence (P54764 29-209 limits assumed) above, with I31A counted along it

EphA4-LBD mutant 159G = EphA4-LBD mutant 159G (UniProt P54764); experiment: ITC
EphA4-LBD mutant 159G, sequence (P54764 other isoform, or with tags, fused parts or gaps mutant limits assumed): as the sequence (P54764 29-209 limits assumed) above, with I31G counted along it

[7] = target: EphA4 ligand binding domain (UniProt P54764); experiment: ITC; grade legend: A < 1 µM
[8] = target: EphA4 ligand binding domain (UniProt P54764); experiment: FPA, displacement of FITC-KYL peptide from EphA4 LBD; repeated experiments

Compound: NCCCC(=O)N[C@@H](Cc1c[nH]c2ccc(O)cc12)C(=O)N[C@@H](Cc1ccc(Cl)cc1)C(=O)N[C@@H](Cc1ccncc1)C(=O)NCCc1c[nH]c2ccc(F)cc12 [Compound 6, 4-amino-N-((S)-1-((S)-3-(4-chlorophenyl)-1-((S)-1-(2-(5-fluoro-1H-indol-3-yl)ethylamino)-1-oxo-3-(pyridin-4-yl)propan-2-ylamino)-1-oxopropan-2-ylamino)-3-(5-hydroxy-1H-indol-3-yl)-1-oxopropan-2-yl)butanamide]
pKi (EphA4 LBD [1]): 5.30 to 6.00

Compound: NCCCC(=O)N[C@@H](Cc1c[nH]c2ccc(O)cc12)C(=O)N[C@@H](Cc1ccc(Cl)cc1)C(=O)N[C@@H](Cc1ccncc1)C(=O)NCCc1c[nH]c2ccccc12 [Compound 5, N-((S)-1-((S)-1-((S)-1-(2-(1H-indol-3-yl)ethylamino)-1-oxo-3-(pyridin-4-yl)propan-2-ylamino)-3-(4-chlorophenyl)-1-oxopropan-2-ylamino)-3-(5-hydroxy-1H-indol-3-yl)-1-oxopropan-2-yl)-4-aminobutanamide]
pKi (EphA4 LBD [1]): 5.30 to 6.00
pKd (EphA4 LBD [3]): 5.30 to 6.00

Compound: COc1ccc2[nH]cc(CCNC(=O)[C@H](Cc3ccncc3)NC(=O)[C@H](Cc3ccc(Cl)cc3)NC(=O)[C@H](Cc3c[nH]c4ccc(O)cc34)NC(=O)CCCN)c2c1 [Compound 7, 4-amino-N-((S)-1-((S)-3-(4-chlorophenyl)-1-((S)-1-(2-(5-methoxy-1H-indol-3-yl)ethylamino)-1-oxo-3-(pyridin-4-yl)propan-2-ylamino)-1-oxopropan-2-ylamino)-3-(5-hydroxy-1H-indol-3-yl)-1-oxopropan-2-yl)butanamide]
Binding to the EphA2 receptor by ITC (EphA2 receptor): not observed
Binding exchange regime by NMR (15N-labeled EphA4-LBD): slow exchange in the NMR time scale
Effect on disease onset (SOD1(G93A)-mutant mice [4]; 30 mg/Kg i.p. daily in saline): without affecting the disease onset
Kaplan-Meier survival compared to control mice (SOD1(G93A)-mutant mice [4]; 30 mg/kg daily i.p.): increased survival
Average survival time from disease onset to end point (SOD1(G93A)-mutant mice [4]; 30 mg/kg daily i.p. from postnatal day 60, mean±SD, control 28.2±4.2 days, p<0.01): 38.6 ± 5.7 days
Average life span (SOD1(G93A)-mutant mice [4]; 30 mg/kg daily i.p. from postnatal day 60, n=12, mean±SD, control 134.3±7.2 days, p<0.01): 142.8 ± 6.9 days
Signs of toxicity compared to control mice (SOD1(G93A)-mutant mice [5]; 30 mg/Kg daily i.p. for several weeks): no adverse sign of toxicity were observed
Survival in pilot study (SOD1(G93A)-mutant mice [5]; 30 mg/Kg daily i.p.): increased survival

Compound: KYLPYWPVLSSL
Kd for EphA4 (reported peptides) (EphA4): low micromolar range

Compound: NCCCCC(=O)N[C@@H](Cc1c[nH]c2ccc(O)cc12)C(=O)N[C@@H](Cc1ccc(Cl)cc1)C(=O)N[C@@H](Cc1ccncc1)C(=O)N[C@H](Cc1c[nH]c2ccccc12)C(N)=O [Compound 4, 5-amino-N-((S)-1-((S)-1-((S)-1-((R)-1-amino-3-(1H-indol-3-yl)-1-oxopropan-2-ylamino)-1-oxo-3-(pyridin-4-yl)propan-2-ylamino)-3-(4-chlorophenyl)-1-oxopropan-2-ylamino)-3-(5-hydroxy-1H-indol-3-yl)-1-oxopropan-2-yl)pentanamide] (H-[Ava][Trp(5-OH)][Phe(4-Cl)][4Pal][dW]-NH2)
pKi (EphA4 LBD [1]): 5.30 to 6.00

Results, then the compound that gave them:

pKi [2]: < 5.30
Compound: Compound 11: 4-amino-N-((S)-1-((S)-3-(4-chlorophenyl)-1-((S)-1-(2-(naphthalen-1-yl)ethylamino)-1-oxo-3-(pyridin-4-yl)propan-2-ylamino)-1-oxopropan-2-ylamino)-3-(5-hydroxy-1H-indol-3-yl)-1-oxopropan-2-yl)butanamide (peptide)

pKi (EphA4 LBD [1]): 5.30 to 6.00
pKd (EphA4 LBD [3]): 5.30 to 6.00
Compound: NCCCC(=O)N[C@@H](Cc1c[nH]c2ccc(O)cc12)C(=O)N[C@@H](Cc1ccc(Cl)cc1)C(=O)N[C@@H](Cc1ccncc1)C(=O)NCCc1c[nH]c2ccc(O)cc12 [Compound 8, 4-amino-N-((S)-1-((S)-3-(4-chlorophenyl)-1-((S)-1-(2-(5-hydroxy-1H-indol-3-yl)ethylamino)-1-oxo-3-(pyridin-4-yl)propan-2-ylamino)-1-oxopropan-2-ylamino)-3-(5-hydroxy-1H-indol-3-yl)-1-oxopropan-2-yl)butanamide]

pKi (EphA4 LBD [1]): 5.30 to 6.00
pKd (EphA4 LBD [3]): > 6.00
Compound: COc1ccc2c(CCNC(=O)[C@H](Cc3ccncc3)NC(=O)[C@H](Cc3ccc(Cl)cc3)NC(=O)[C@H](Cc3c[nH]c4ccc(O)cc34)NC(=O)CCCN)c[nH]c2c1 [Compound 10, 4-amino-N-((S)-1-((S)-3-(4-chlorophenyl)-1-((S)-1-(2-(6-methoxy-1H-indol-3-yl)ethylamino)-1-oxo-3-(pyridin-4-yl)propan-2-ylamino)-1-oxopropan-2-ylamino)-3-(5-hydroxy-1H-indol-3-yl)-1-oxopropan-2-yl)butanamide]

pKi (EphA4 LBD [1]): 5.30 to 6.00
Compound: NCCCC(=O)N[C@@H](Cc1c[nH]c2ccc(O)cc12)C(=O)N[C@@H](Cc1ccc(Cl)cc1)C(=O)N[C@@H](Cc1ccncc1)C(=O)NCCc1c[nH]c2ccc(Cl)cc12 [Compound 9, 4-amino-N-((S)-1-((S)-1-((S)-1-(2-(5-chloro-1H-indol-3-yl)ethylamino)-1-oxo-3-(pyridin-4-yl)propan-2-ylamino)-3-(4-chlorophenyl)-1-oxopropan-2-ylamino)-3-(5-hydroxy-1H-indol-3-yl)-1-oxopropan-2-yl)butanamide]

pKd [6]: 6.35
pKd (EphA4-LBD mutant 159A): 5.04
pKd (EphA4-LBD mutant 159G): 5.44
pKd [7]: > 6.00
pKi [8]: 6.18 to 6.30
Compound: Compound 7: 4-amino-N-((S)-1-((S)-3-(4-chlorophenyl)-1-((S)-1-(2-(5-methoxy-1H-indol-3-yl)ethylamino)-1-oxo-3-(pyridin-4-yl)propan-2-ylamino)-1-oxopropan-2-ylamino)-3-(5-hydroxy-1H-indol-3-yl)-1-oxopropan-2-yl)butanamide (peptide)

pKi (EphA4 LBD [1]): ≤ 5.30
Compound: NCCCC(=O)N[C@@H](Cc1c[nH]c2ccc(O)cc12)C(=O)N[C@@H](Cc1ccc(Cl)cc1)C(=O)N[C@@H](Cc1ccncc1)C(=O)NCCc1cccc2ccccc12 [Compound 11, 4-amino-N-((S)-1-((S)-3-(4-chlorophenyl)-1-((S)-1-(2-(naphthalen-1-yl)ethylamino)-1-oxo-3-(pyridin-4-yl)propan-2-ylamino)-1-oxopropan-2-ylamino)-3-(5-hydroxy-1H-indol-3-yl)-1-oxopropan-2-yl)butanamide]

Reference: patent US20180127464A1, “NOVEL EPHA4 INHIBITORS TARGETING ITS LIGAND BINDING DOMAIN” (Sanford-Burnham Medical Research Institute, priority 2015, published 2018)
